Measured values published in ChEMBL document CHEMBL1201862, “PubChem BioAssay data set” (2004).
Activity calls are given as the source filed them.

Experiments:
[1] = target: T1, Short transient receptor potential channel 4 (Mus musculus, UniProt Q9QUQ5); assay: block of DAMGO-driven TRPC4 calcium entry – cell-based, HEK293 TRPC4/mu-opioid, Fluo-4 calcium, dose response (AID 434942); assay type: functional;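 further: potency of inhibitors blocking the TRPC4 calcium response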
T1 sequence (Q9QUQ5 whole entry): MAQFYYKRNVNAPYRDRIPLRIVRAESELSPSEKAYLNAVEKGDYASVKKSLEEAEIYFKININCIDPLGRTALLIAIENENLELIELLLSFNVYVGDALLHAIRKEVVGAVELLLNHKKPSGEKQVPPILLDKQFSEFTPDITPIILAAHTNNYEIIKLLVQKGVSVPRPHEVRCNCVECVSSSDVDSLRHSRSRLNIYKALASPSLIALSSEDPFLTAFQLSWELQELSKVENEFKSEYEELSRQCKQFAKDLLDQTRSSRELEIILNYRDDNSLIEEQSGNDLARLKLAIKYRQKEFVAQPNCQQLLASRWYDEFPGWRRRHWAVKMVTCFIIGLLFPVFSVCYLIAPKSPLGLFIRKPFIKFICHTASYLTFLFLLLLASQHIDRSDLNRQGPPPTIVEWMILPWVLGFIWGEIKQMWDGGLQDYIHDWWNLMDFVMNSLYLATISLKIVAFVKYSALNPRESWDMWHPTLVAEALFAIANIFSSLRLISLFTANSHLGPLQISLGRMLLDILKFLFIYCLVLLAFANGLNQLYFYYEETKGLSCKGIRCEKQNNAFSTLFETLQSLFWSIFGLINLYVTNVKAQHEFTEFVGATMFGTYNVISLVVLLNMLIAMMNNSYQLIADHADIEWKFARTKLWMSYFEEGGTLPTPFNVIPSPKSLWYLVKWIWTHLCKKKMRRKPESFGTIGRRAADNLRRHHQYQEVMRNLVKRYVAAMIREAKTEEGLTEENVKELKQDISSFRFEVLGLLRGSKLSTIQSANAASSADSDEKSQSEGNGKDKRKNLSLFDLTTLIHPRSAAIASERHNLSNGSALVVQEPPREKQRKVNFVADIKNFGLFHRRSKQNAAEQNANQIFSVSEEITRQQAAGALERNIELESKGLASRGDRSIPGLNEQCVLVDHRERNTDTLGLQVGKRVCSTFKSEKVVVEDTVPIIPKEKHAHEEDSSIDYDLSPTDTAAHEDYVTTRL

[2] = system: BJ; assay: BJ-TERT fibroblast viability loss – cell-based, RAS-independent, luminescence, dose response (AID 1933); assay type: functional; conditions: Homo sapiens
[3] = target: T2, Protein RecA (Mycobacterium tuberculosis, UniProt P9WHJ3); assay: Fluorescence Cell-Free Homogeneous Dose Retest to Identify Inhibitors of RecA-Intein Splicing Activity. [Related pubchem assays (depositor defined):AID2097, AID2223, AID489010, AID492950]; assay type: functional
T2 sequence (P9WHJ3 whole entry): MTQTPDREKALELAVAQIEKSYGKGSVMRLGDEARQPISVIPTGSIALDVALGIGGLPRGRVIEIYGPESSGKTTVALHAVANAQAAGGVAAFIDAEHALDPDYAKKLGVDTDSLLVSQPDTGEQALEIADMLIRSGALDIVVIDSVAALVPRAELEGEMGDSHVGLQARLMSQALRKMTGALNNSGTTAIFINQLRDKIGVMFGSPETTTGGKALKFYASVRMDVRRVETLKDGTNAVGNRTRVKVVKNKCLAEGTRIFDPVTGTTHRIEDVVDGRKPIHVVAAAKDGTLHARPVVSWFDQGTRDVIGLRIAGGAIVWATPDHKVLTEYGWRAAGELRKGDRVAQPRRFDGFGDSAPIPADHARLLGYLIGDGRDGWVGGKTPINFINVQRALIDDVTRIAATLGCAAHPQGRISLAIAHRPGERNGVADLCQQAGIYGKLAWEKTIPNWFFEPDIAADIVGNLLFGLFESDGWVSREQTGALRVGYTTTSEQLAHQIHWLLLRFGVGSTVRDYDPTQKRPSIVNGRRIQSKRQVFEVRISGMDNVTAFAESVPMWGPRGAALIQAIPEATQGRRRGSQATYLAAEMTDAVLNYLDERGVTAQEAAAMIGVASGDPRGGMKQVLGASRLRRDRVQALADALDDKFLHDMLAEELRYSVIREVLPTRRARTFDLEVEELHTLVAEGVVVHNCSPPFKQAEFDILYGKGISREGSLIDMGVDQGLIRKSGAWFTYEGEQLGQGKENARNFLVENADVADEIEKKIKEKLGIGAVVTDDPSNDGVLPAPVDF

[4] = viability of HCT116 lacking mutant beta-catenin – cell-based, human colon tumor, dose response (AID 1045); assay type: functional;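 further: HCT116 colon tumor cells with beta catenin knocked out; cells exposed to compound for 60 hours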
[5] = system: BJ; assay: cells; assay type: functional, cell-based; conditions: Homo sapiens
[6] = system: INS1; assay: INS-1E survival protection against cytokine death – cell-based, luminescence, retest, dose response (AID 449756); assay type: functional; conditions: Rattus norvegicus;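 further: cell death triggered by IL-1 beta plus TNF-alpha plus IFN-gamma mixture; protective hits raise ATP signal compared with cytokine alone wells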
[7] = target: T3, Replicative DNA helicase DnaB (Mycobacterium tuberculosis, UniProt P9WMR3); assay: DnaB intein splicing inhibitors, dose response, biochemical, cell-free fluorescence (AID 449749); assay type: functional
T3 sequence (P9WMR3 whole entry): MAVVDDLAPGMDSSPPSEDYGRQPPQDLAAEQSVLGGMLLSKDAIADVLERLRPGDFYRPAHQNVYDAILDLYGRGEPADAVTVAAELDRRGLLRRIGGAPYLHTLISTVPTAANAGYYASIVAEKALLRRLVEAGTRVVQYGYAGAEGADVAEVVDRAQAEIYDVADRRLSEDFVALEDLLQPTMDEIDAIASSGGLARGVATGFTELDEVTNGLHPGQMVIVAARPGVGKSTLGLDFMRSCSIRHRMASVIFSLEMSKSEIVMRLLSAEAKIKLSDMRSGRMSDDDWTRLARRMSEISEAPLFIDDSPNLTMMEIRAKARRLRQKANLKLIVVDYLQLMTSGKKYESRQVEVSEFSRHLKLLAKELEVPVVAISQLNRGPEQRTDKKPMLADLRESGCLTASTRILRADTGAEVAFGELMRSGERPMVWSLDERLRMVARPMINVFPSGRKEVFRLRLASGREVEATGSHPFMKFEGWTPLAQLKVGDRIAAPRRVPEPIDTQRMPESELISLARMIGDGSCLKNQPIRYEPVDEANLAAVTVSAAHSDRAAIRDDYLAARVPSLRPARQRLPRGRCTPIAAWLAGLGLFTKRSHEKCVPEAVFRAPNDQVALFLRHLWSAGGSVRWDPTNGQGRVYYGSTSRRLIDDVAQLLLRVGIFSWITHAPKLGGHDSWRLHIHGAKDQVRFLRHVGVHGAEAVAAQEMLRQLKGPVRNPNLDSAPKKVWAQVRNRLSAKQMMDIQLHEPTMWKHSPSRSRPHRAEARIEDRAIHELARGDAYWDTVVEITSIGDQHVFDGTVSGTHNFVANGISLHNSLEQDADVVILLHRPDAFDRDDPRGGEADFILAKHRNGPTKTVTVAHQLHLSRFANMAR

[8] = system: BJ; assay: BJ-TERT-LT-ST fibroblast viability loss – cell-based, RAS-independent, luminescence, dose response (AID 1935); assay type: functional; conditions: Homo sapiens;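 further: BJ fibroblasts immortalized with TERT plus LT and ST oncogenes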
[9] = Luminescence Cell-Based Dose Retest to Confirm Inhibitors of Cancer Stem Cells. [Related pubchem assays (depositor defined):AID2717, AID2721]; assay type: functional; conditions: Homo sapiens
[10] = DRD fibroblast viability loss – cell-based, non-viral oncogenic, luminescence, dose response (AID 1934); assay type: functional; conditions: Homo sapiens

SMILES: O=[N+]([O-])c1ccc(O)c(C2=NNC(c3ccccc3F)C2)c1 (stereo not given)
- EC50 [1]: 15 µM (active)

SMILES: Cc1oc2c(c1C(=O)N1CCC(C)CC1)C(=O)c1ccccc1C2=O
- EC50 [2]: 17.6 µM (active)
- EC50 [3]: 1.09 µM (active)
- EC50 [4]: 1.86 µM (active)
- EC50 [5]: 13.3 µM (active)
- AC50 [6]: 2.01 µM (active)
- AC50 [7]: 73.9 µM (active)
- EC50 [8]: > 75 µM (not active)
- AC50 [9]: 6.94 µM (active)
- EC50 [10]: 16.5 µM (active)
